Experimental data: US20210115104A1, “AMYLIN ANALOGUES” (Zealand Pharma A/S, priority 2015, published 2021)
*1 amine or outer side, *2 acyl side, *3 side chain or, on linkers, in order; H or OH if unused. Where a SMILES comes first, the peptide text is derived from it. Bridges are numbered along the chain shown (N, C = ends). [ ]: non-standard residue; d: D form. The star is where a group is joined. C20 diacid = O=C(O)CCCCCCCCCCCCCCCCCCC(=O)*; γGlu = O=C(O)[C@H](CCC(=O)[*:2])N[*:1]; Hyp = O=C(O)[C@@H]1C[C@@H](O)CN1; NMeI = CC[C@H](C)[C@H](NC)C(=O)O; Sar = CNCC(=O)O

Tests used:
[1] = Assessment of chemical stability (RP-HPLC normalized purity); assay type: physicochemical; settings: 7 days, 40° C., Table 1; for Normalized purity after 7 days, 40° C., pH 4: pH 4, 0.2 mg/ml; for Normalized purity after 7 days, 40° C., pH 6: pH 6, 0.2 mg/ml; for Normalized purity after 7 days, 40° C., pH 7.5: pH 7.5, 0.2 mg/ml; for Normalized purity after 7 days, 40° C., pH 9: pH 9, 0.2 mg/ml
Method in brief: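 Peptides at 0.2 mg/ml in water adjusted to pH 4, 6, 7.5 or 9, incubated at 40° C for 7 days. Main-peak area-% by RP-HPLC (C8 ammonium formate or C18 TFA gradient, UV 220 nm), normalized to T=0 as 100.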

[2] = Assessment of physical stability (Thioflavin T fibrillation); assay type: physicochemical; parameters: key: FND = fibrillation not detected; FD = fibrillation detected; settings: 1 mg/ml, 40° C., ThT; for Fibrillation pH 4.0 (Ac): 50 mM acetate buffer pH 4.0, 96 hours; for Fibrillation pH 7.0 (His): 50 mM histidine buffer pH 7.0, 96 hours; for Fibrillation pH 7.0 (Phos.): 50 mM phosphate buffer pH 7.0, 96 hours
Method in brief: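 1 mg/ml peptide with 40 μM ThT in 50 mM phosphate pH 7.0, 50 mM histidine pH 7.0 or 50 mM acetate pH 4.0, in triplicate. Fluorescence read every 10 min after 300 s agitation over 96 h at 40 °C. Lag-time (h) is the intersection of linear fits to stable and growth phases.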

[3] = target: T1, human calcitonin receptor (hCTR2) (Homo sapiens, UniProt P30988); assay: hCTR2 cAMP assay (AlphaScreen) in COS7 cells; assay type: cell-based; settings: cAMP induction, COS7 cells expressing hCTR2; Table 1; read-out: hCTR2 EC50
T1 construct: expressed in transfected cells
T1 sequence (P30988 25-474): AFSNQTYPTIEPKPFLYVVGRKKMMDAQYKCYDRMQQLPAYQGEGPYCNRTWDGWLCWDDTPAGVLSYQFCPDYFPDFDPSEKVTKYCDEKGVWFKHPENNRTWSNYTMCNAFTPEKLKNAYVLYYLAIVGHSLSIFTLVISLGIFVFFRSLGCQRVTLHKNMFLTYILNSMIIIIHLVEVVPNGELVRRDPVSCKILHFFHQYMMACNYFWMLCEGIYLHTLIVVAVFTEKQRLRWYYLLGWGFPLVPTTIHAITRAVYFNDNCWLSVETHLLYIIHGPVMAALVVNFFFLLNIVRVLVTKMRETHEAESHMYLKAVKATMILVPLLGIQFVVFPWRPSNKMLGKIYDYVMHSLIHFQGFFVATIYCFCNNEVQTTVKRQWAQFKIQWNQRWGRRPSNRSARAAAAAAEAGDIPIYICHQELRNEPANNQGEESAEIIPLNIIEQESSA
Method in brief: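 Stable hCTR2 clone in RAMP-naïve COS7 cells stimulated 15 min at 37 °C with increasing peptide concentrations in Tyrode buffer pH 7.4 containing IBMX and 0.1% casein. cAMP in lysates measured by AlphaScreen; EC50 from 4-parameter logistic fit.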

[4] = target: T2, human amylin receptor 3 (hAMYR3), hCTR2 co-expressed with hRAMP3 (Homo sapiens, UniProt O60896+P30988); assay: hAMYR3 cAMP assay (AlphaScreen) in COS7 cells; assay type: cell-based; settings: cAMP induction, COS7 cells expressing hAMYR3; Table 1; read-out: hAMYR3 EC50
T2 construct: expressed in transfected cells
T2 sequence (P30988 25-474): T1 sequence (P30988 25-474)
T2 sequence (O60896 24-148 partner): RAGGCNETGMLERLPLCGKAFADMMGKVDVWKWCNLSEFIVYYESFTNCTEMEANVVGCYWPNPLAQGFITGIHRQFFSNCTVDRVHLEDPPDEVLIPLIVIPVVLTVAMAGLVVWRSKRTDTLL
Method in brief: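 Stable COS7 clone co-expressing hCTR2 and hRAMP3 was exposed to increasing peptide concentrations in Tyrode buffer (pH 7.4) with 100 µM IBMX and 0.1% casein for 15 min at 37 °C. Lysate cAMP was measured by AlphaScreen; EC50 came from 4-parameter logistic fitting.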

SMILES | Normalized purity after 7 days, 40° C., pH 4 [1] | Normalized purity after 7 days, 40° C., pH 6 [1] | Normalized purity after 7 days, 40° C., pH 7.5 [1] | Normalized purity after 7 days, 40° C., pH 9 [1] | Fibrillation pH 4.0 (Ac) [2] | Fibrillation pH 7.0 (His) [2] | Fibrillation pH 7.0 (Phos.) [2] | EC50 [3] [nM] | EC50 [4] [nM]
CC[C@H](C)[C@@H](C(=O)N[C@@H](CC(C)C)C(=O)N[C@@H](CO)C(=O)N[C@@H](CO)C(=O)N[C@H](C(=O)N[C@@H](CCC(=O)O)C(=O)N[C@H](C(=O)NCC(=O)N[C@@H](CO)C(=O)NCC(=O)N[C@H](C(=O)N1C[C@H](O)C[C@H]1C(N)=O)[C@@H](C)O)C(C)C)[C@@H](C)O)N(C)C(=O)[C@H](C)NC(=O)CN(C)C(=O)[C@H](Cc1ccccc1)NC(=O)[C@H](CCCNC(=N)N)NC(=O)[C@H](CCC(N)=O)NC(=O)[C@H](CC(C)C)NC(=O)[C@H](Cc1ccccc1)NC(=O)[C@H](Cc1c[nH]cn1)NC(=O)[C@H](C)NC(=O)[C@H](CC(C)C)NC(=O)[C@H](CCCNC(=N)N)NC(=O)[C@H](CCC(N)=O)NC(=O)[C@@H](NC(=O)[C@H](C)NC(=O)[C@@H]1CSSC[C@H](NC(=O)[C@H](CCCNC(=N)N)NC(=O)CC[C@H](NC(=O)CCCCCCCCCCCCCCCCCCC(=O)O)C(=O)O)C(=O)N[C@@H](CC(N)=O)C(=O)N[C@@H]([C@@H](C)O)C(=O)N[C@@H](C)C(=O)N[C@@H]([C@@H](C)O)C(=O)N1)[C@@H](C)O [Compound 79, [19CD]-isoGlu-R-C( )-NTAT-C( )-ATQRLAHFLQRF-Gly(Me)-A-Ile(Me)-LSSTEVGSGT-Hyp-NH2] ({C20 diacid-γGlu}-RCNTATCATQRLAHFLQRF[Sar]A[NMeI]LSSTEVGSGT[Hyp]-NH2; disulfide 2-7) | A (A = >90%) | A (A = >90%) | B (B = 70-90%) | B (B = 70-90%) | FND | FD | FD | 0.12 | 0.23
CC[C@H](C)[C@@H](C(=O)N[C@@H](CC(C)C)C(=O)N[C@@H](CO)C(=O)N[C@@H](CO)C(=O)N[C@H](C(=O)N[C@@H](CCC(=O)O)C(=O)N[C@H](C(=O)NCC(=O)N[C@@H](CO)C(=O)NCC(=O)N[C@H](C(=O)N1C[C@H](O)C[C@H]1C(N)=O)[C@@H](C)O)C(C)C)[C@@H](C)O)N(C)C(=O)[C@H](C)NC(=O)CN(C)C(=O)[C@H](Cc1ccccc1)NC(=O)[C@H](CO)NC(=O)[C@H](CO)NC(=O)[C@H](CCCNC(=N)N)NC(=O)[C@H](CCC(N)=O)NC(=O)[C@H](CC(C)C)NC(=O)[C@H](Cc1ccccc1)NC(=O)[C@H](Cc1c[nH]cn1)NC(=O)[C@H](C)NC(=O)[C@H](CC(C)C)NC(=O)[C@H](CCCNC(=N)N)NC(=O)[C@H](CCC(=O)O)NC(=O)[C@@H](NC(=O)[C@H](C)NC(=O)[C@@H]1CSSC[C@H](NC(=O)[C@H](CCCNC(=N)N)NC(=O)CC[C@H](NC(=O)CCCCCCCCCCCCCCCCCCC(=O)O)C(=O)O)C(=O)NCC(=O)N[C@@H]([C@@H](C)O)C(=O)N[C@@H](C)C(=O)N[C@@H]([C@@H](C)O)C(=O)N1)[C@@H](C)O [Compound 52, [19CD]-isoGlu-R-C( )-GTAT-C( )-ATERLAHFLQRSSF-Gly(Me)-A-Ile(Me)-LSSTEVGSGT-Hyp-NH2] ({C20 diacid-γGlu}-RCGTATCATERLAHFLQRSSF[Sar]A[NMeI]LSSTEVGSGT[Hyp]-NH2; disulfide 2-7) | A (A = >90%) | B (B = 70-90%) | B (B = 70-90%) | B (B = 70-90%) | FND | FND | FND | 0.07 | 0.09
CC[C@H](C)[C@@H](C(=O)N[C@@H](CC(C)C)C(=O)N[C@@H](CO)C(=O)N[C@@H](CO)C(=O)N[C@H](C(=O)N[C@@H](CC(=O)O)C(=O)N[C@H](C(=O)NCC(=O)N[C@@H](CO)C(=O)N[C@@H](CC(N)=O)C(=O)N[C@H](C(=O)N1C[C@H](O)C[C@H]1C(N)=O)[C@@H](C)O)C(C)C)[C@@H](C)O)N(C)C(=O)[C@H](C)NC(=O)CN(C)C(=O)[C@H](Cc1ccccc1)NC(=O)[C@H](CO)NC(=O)[C@H](CO)NC(=O)[C@H](CCCNC(=N)N)NC(=O)[C@H](CCC(N)=O)NC(=O)[C@H](CC(C)C)NC(=O)[C@H](Cc1ccccc1)NC(=O)[C@H](Cc1c[nH]cn1)NC(=O)[C@H](C)NC(=O)[C@H](CC(C)C)NC(=O)[C@H](CCCNC(=N)N)NC(=O)[C@H](CC(=O)O)NC(=O)[C@@H](NC(=O)[C@H](C)NC(=O)[C@@H]1CSSC[C@H](NC(=O)[C@H](CCCNC(=N)N)NC(=O)CC[C@H](NC(=O)CCCCCCCCCCCCCCCCCCC(=O)O)C(=O)O)C(=O)N2CCC[C@H]2C(=O)N[C@@H]([C@@H](C)O)C(=O)N[C@@H](C)C(=O)N[C@@H]([C@@H](C)O)C(=O)N1)[C@@H](C)O [Compound 59, [19CD]-isoGlu-R-C( )-PTAT-C( )-ATDRLAHFLQRSSF-Gly(Me)-A-Ile(Me)-LSSTDVGSNT-Hyp-NH2] ({C20 diacid-γGlu}-RCPTATCATDRLAHFLQRSSF[Sar]A[NMeI]LSSTDVGSNT[Hyp]-NH2; disulfide 2-7) | A (A = >90%) | B (B = 70-90%) | C (C = <70%) | B (B = 70-90%) | FND | FD | FD | 0.03 | 0.11
CC[C@H](C)[C@@H](C(=O)N[C@@H](CC(C)C)C(=O)N[C@@H](CO)C(=O)N[C@@H](CO)C(=O)N[C@H](C(=O)N[C@@H](CCC(=O)O)C(=O)N[C@H](C(=O)NCC(=O)N[C@@H](CO)C(=O)N[C@@H](CC(N)=O)C(=O)N[C@H](C(=O)N1C[C@H](O)C[C@H]1C(N)=O)[C@@H](C)O)C(C)C)[C@@H](C)O)N(C)C(=O)[C@H](C)NC(=O)CN(C)C(=O)[C@H](Cc1ccccc1)NC(=O)[C@H](CO)NC(=O)[C@H](CO)NC(=O)[C@H](CCCNC(=N)N)NC(=O)[C@H](CCCCN)NC(=O)[C@H](CC(C)C)NC(=O)[C@H](Cc1ccccc1)NC(=O)[C@H](Cc1c[nH]cn1)NC(=O)[C@H](C)NC(=O)[C@H](CC(C)C)NC(=O)[C@H](CCCNC(=N)N)NC(=O)[C@H](CCC(=O)O)NC(=O)[C@@H](NC(=O)[C@H](C)NC(=O)[C@@H]1CSSC[C@H](NC(=O)[C@H](CCCNC(=N)N)NC(=O)CC[C@H](NC(=O)CCCCCCCCCCCCCCCCCCC(=O)O)C(=O)O)C(=O)NCC(=O)N[C@@H]([C@@H](C)O)C(=O)N[C@@H](C)C(=O)N[C@@H]([C@@H](C)O)C(=O)N1)[C@@H](C)O [Compound 19, [19CD]-isoGlu-R-C( )-GTAT-C( )-ATERLAHFLKRSSF-Gly(Me)-A-Ile(Me)-LSSTEVGSNT-Hyp-NH2] ({C20 diacid-γGlu}-RCGTATCATERLAHFLKRSSF[Sar]A[NMeI]LSSTEVGSNT[Hyp]-NH2; disulfide 2-7) | A (A = >90%) | A (A = >90%) | A (A = >90%) | C (C = <70%) | FND | FND | FND | 0.16 | 0.28
